Experimental data as given in patent US8168430B2, “Method for preparation of hepatocyte using ES cell” (Nihon University, priority 2006, dated 2012).

Assays:
[1] = system: TT2 ES cells; test: Expression of differentiation markers (RT-PCR, western blot) in ES cells induced to differentiate from embryoid bodies; conditions: for expression of the differentiation markers for hepatocyte (albumin, Cyp7a1 etc.): cultured 18 days in supplemented differentiation-inducing medium, RT-PCR and western blot
[2] = system: TT2 ES cells; test: FACS analysis of albumin producing cells; type: cell-based, mouse; conditions: cultured 9 days; FACS with anti-albumin antibodies; control 22%
Protocol: The medium of the cultured cells was removed and washing was performed using PBS (−). After the cells were detached from the surface of the dish using 0.25% trypsin solution, 5 mL of a collagenase solution as described below was added to the cells and the cells were incubated at 37° C. for 30 minutes in order to digest the intercellular adhesion.
After digestion, cells were collected by centrifugation (1000 rpm, 4° C., 5 minutes) and fixed using 1 mL of ice-chilled 100% methanol. After fixing the cells, centrifugation (1500 rpm, 4° C., 5 minutes) was performed in order to remove the methanol. […] Then FITC-bonded sheep anti-rabbit IgG (MP Biomedicals Inc., Catalog# 55647, Lot# 02756) was added to the cells and the cells were allowed to stand for one hour while shielding against light. After standing for one hour, the cells were loaded by a FACS Canto™ (Becton Dickinson, Franklin Lakes, N.J.) wherein a FSC voltage was set to 80, a FITC voltage was set to 300 and a threshold was set to 1000. Thereafter BD DiVa Software was used for analysis. In FIGS. 12 and 13, the intensity of FITC is shown on the horizontal axis and FSC is shown on the vertical axis.
Then uPA, DFP-treated uPA or tPA was added to differentiation-inducing medium and cultured for 9 days. Cells were isolated using trypsin treatment and collagenase treatment, and FACS analysis was performed using anti-albumin antibodies.

Compound	expression of the differentiation markers for hepatocyte (albumin, Cyp7a1 etc.) [1]	induction of differentiation into hepatocytes ([1]; differentiation-inducing medium supplemented with the factor)	albumin producing cells, share of the total number of cells [2] [%]
N=C(N)c1ccc(N)cc1 [p-aminobenzamidine, reference compound]	suppressed	–	–
tPA: tissue-type PA which has the same substrate specificity as uPA	almost no change	did not induce differentiation into hepatocytes	27.2
